Data reported in publication PMC3479967 (Evidence-based Complementary and Alternative Medicine : eCAM, 2012).

Biological target: T1, UGT1A3 (Homo sapiens, UniProt P35503)
T1 sequence (P35503 29-534): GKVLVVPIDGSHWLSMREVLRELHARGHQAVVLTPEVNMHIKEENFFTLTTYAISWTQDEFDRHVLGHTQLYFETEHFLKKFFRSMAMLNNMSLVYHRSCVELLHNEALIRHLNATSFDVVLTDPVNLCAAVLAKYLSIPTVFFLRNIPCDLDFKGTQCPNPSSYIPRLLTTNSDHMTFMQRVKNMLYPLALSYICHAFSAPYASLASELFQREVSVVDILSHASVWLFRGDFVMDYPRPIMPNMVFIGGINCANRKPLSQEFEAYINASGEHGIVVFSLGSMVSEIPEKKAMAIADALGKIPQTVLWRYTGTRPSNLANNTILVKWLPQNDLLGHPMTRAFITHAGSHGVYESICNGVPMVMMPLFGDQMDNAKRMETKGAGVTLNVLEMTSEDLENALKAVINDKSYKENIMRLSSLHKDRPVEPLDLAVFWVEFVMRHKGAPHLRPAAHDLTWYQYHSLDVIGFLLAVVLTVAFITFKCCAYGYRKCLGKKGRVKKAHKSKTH
Experiment: Inhibition of recombinant UGT1A3 activity (4-MU glucuronidation)
Experimental: A panel of recombinant human UGT supersomes (UGT1A1, UGT1A3, UGT1A4, UGT1A6, UGT1A7, UGT1A8, UGT1A9, UGT1A10, UGT2B4, UGT2B7, UGT2B15, and UGT2B17) expressed in baculovirus-infected insect cells were purchased from BD Gentest Corp. (Woburn, MA, USA).
4-MU, a nonselective substrate of UGTs, was used as probe substrate for all UGTs except UGT1A4. Incubations with each individual enzyme were conducted using conditions previously described. There was a 5 min preincubation step at 37°C before the reaction was started by addition of UDPGA. The incubation mixtures were then centrifuged at 20,500 ×g for 15 min to obtain the supernatant. Aliquots (20 μL) were then analyzed by HPLC. The HPLC system (SHIMADZU, Kyoto, Japan) consisted of an SCL-10A system controller, two LC-10AT pumps, a SIL-10A auto injector, and a SPD-10AVP UV detector. […] The mobile phase consisted of 10 mM KH2PO4, pH 2.7 (A) and acetonitrile (B). The following gradient was applied at a flow rate of 1 mL/min: 0–4 min 80% A and 20% B, 4.1–8 min 50% A and 50% B, 8.1–12 min, 30% A and 70% B. All experiments were performed in two independent experiments in duplicate.
A typical incubation mixture contained recombinant human UGTs, 5 mM MgCl2, 5 mM UDPGA, 50 μg/mg protein alamethicin, 50 mM Tris-HCl buffer (pH 7.4), and various probe substrates of UGTs in the absence or presence of different concentrations of inhibitors. […] The final concentration of DMSO in the incubation system was 1% (v/v). […] Known UGT inhibitors were used as positive controls: diclofenac for UGT1A1, UGT1A6, UGT1A7, and UGT1A9; androsterone for UGT1A3, UGT2B7, and UGT2B15, phenylbutazone for UGT1A8 and UGT1A10, and hecogenin for UGT1A4, respectively. There is no positive control reported available for UGT2B4 and UGT2B17. The negative controls are the incubation without UDPGA. […] The final concentration of DMSO in the incubation system was 1% (v/v). […] There was a 5 min preincubation step at 37°C before the reaction was started by the addition of UDPGA. Incubation times were 120 min for UGT1A1, UGT1A10, UGT2B4, UGT2B15, and UGT2B17, 75 min for UGT1A3, and 30 min for UGT1A4, UGT1A6, UGT1A7, UGT1A8, and UGT1A9. The reactions were quenched by adding 100 μL acetonitrile and internal standard. The incubation mixtures were then centrifuged at 20,500 ×g for 15 min to obtain the supernatant. An aliquot of the supernatant was used for HPLC analysis as described above. All experiments were performed in two independent experiments in duplicate.
Inhibition data from experiments were graphically represented by Dixon plots. K i values were calculated by nonlinear regression using the equations for competitive inhibition (1), noncompetitive inhibition (2), or mixed inhibition (3), [22] […] The type of inhibition was determined from the enzyme inhibition models. […]

IC50 [µM]	Compound	Ki [µM]
> 100	COc1ccc(-c2oc3c(CC=C(C)C)c(O)cc(O)c3c(=O)c2O)cc1 [Icaritin]	
> 100	COc1ccc(-c2oc3c(CC=C(C)C)c(O[C@@H]4O[C@H](CO)[C@@H](O)[C@H](O)[C@H]4O)cc(O)c3c(=O)c2O)cc1 [Icariside I]	

Compound	IC50 [µM]	Ki [µM]
COc1ccc(-c2oc3c(CC=C(C)C)c(O[C@@H]4O[C@H](CO)[C@@H](O)[C@H](O)[C@H]4O)cc(O)c3c(=O)c2O[C@@H]2O[C@@H](C)[C@H](O)[C@@H](O)[C@H]2O)cc1 [Icariin]	12.4 ± 0.1	8 ± 1.4
